pIC50: −log10 of the molar value.
How the values were obtained:
PXR(S208W/S247W/C284W) = target: T1, PXR(S208W/S247W/C284W) (Homo sapiens, UniProt O75469, C284W/S208W/S247W); assay: LBP-filled PXR mutant CYP3A4 reporter assay; format: cell-based; conditions: HepG2, 10 µM, 24 h
T1 construct: expressed in transfected cells; host or cells: HepG2
Description: For testing nuclear receptor selectivity and LBP-filled PXR mutant activation, transient batch transfection was conducted as above, but with HepG2 cells and the following plasmids, with amounts per well of 0.23–0.27 µg pGL4-CYP3A4(-7830Δ7208-364) or pGL3(DR3)3Tk (as reporter for VDR), 0.01 µg pMetLuc2control, and 0.03 µg either CAR1, CAR3, VDR, or PXR(S208W/S247W/C284W) expression plasmids. In addition, 0.03 µg RXRα expression plasmid was added to CAR3 transfections. Metridia luciferase activity was measured from 10 µL of medium supernatant after adding 100 µL Renilla luciferase assay solution.
Figure 5 PXR binding of phenylaminobenzosuberones is indicated by cellular PXR LBD assembly assay and inhibition of LBP-filled PXR mutant (A) Novel compounds induce PXR LBD assembly. […] (B) Effects of novel compounds on LBP-filled PXR mutant. HepG2 cells were transiently transfected with CYP3A4 reporter and expression plasmid encoding PXR(S208W/S247W/C284W) and treated as described above. […] Statistically significant differences are illustrated with asterisks. ** p ˂ 0.01, compared to respective treatments with DMSO analyzed by repeated measures one-way ANOVA with Dunnett’s multiple comparisons test.

EPHA6 = target: T2, EPHA6 (Homo sapiens, UniProt Q9UF33); assay: Kinase profiling; format: biochemical
T2 construct: purchased ProQinase (Freiburg, Germany)
T2 sequence (Q9UF33 23-1036): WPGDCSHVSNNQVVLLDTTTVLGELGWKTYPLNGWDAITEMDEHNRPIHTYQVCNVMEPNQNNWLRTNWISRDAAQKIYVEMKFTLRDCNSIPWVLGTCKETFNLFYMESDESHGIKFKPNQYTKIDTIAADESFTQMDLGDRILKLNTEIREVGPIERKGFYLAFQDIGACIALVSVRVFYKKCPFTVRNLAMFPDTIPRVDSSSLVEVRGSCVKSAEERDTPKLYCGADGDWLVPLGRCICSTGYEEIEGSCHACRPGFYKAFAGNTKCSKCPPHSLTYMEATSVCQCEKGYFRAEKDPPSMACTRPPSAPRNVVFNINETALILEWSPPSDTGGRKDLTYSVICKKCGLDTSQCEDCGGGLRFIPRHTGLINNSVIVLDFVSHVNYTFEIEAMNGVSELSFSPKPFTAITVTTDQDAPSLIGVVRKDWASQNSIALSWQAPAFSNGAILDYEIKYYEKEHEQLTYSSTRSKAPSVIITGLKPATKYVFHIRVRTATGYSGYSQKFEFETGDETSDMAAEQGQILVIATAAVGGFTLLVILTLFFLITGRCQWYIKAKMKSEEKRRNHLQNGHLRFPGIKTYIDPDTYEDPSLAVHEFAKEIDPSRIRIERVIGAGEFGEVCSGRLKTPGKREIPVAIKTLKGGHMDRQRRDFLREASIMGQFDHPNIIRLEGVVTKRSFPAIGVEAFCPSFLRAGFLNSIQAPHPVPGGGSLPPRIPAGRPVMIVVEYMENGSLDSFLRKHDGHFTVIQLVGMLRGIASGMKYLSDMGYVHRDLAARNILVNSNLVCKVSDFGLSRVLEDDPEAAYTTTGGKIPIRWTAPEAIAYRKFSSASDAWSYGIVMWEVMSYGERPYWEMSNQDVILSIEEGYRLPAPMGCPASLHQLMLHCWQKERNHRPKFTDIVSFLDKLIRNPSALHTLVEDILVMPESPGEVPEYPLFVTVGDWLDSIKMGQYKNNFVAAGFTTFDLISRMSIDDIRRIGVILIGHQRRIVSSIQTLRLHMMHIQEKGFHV
Description: (§1) The analysis was performed by ProQinase (Freiburg, Germany).

PKA = target: T3, PKA (Homo sapiens, UniProt P17612); assay: Kinase profiling; format: biochemical
T3 construct: purchased ProQinase (Freiburg, Germany)
Description: as §1

VEGFR1 = target: T4, VEGFR1 (Homo sapiens, UniProt P17948); assay: Kinase profiling; format: biochemical
T4 construct: purchased ProQinase (Freiburg, Germany)
T4 sequence (P17948 27-1338): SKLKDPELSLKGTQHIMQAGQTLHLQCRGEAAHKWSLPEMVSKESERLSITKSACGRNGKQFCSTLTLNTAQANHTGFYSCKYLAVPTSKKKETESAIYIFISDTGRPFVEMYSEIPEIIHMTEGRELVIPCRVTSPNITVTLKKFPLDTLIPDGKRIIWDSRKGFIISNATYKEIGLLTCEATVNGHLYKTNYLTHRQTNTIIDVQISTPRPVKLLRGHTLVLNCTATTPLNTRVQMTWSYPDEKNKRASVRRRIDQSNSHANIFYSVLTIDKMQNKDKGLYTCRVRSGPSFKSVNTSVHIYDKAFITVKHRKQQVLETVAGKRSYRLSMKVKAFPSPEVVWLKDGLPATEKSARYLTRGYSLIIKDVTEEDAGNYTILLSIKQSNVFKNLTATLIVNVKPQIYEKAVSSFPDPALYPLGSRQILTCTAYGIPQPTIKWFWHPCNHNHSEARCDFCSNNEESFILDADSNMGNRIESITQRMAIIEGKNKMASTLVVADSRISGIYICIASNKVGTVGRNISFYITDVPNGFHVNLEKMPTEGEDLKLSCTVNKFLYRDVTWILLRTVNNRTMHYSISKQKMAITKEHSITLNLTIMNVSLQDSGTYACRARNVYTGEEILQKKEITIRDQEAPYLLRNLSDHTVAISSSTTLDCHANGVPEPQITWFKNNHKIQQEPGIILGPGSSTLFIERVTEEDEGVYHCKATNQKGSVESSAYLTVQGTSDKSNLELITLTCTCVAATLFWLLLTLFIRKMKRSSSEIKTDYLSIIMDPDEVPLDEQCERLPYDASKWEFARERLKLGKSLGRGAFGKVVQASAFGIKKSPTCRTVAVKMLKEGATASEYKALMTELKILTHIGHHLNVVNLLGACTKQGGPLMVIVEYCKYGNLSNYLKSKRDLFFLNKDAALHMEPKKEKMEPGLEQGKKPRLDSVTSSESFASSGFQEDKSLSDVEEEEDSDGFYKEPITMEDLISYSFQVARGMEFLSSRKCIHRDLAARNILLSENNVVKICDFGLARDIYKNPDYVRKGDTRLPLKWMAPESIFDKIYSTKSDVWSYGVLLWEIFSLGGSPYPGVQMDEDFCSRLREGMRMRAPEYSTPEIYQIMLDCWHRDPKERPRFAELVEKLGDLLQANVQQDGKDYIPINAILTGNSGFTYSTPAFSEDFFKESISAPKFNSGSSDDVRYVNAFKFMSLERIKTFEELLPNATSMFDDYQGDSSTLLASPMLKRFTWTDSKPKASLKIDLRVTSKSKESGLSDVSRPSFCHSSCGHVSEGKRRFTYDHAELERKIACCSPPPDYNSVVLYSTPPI
Description: as §1

PXR = target: T5, PXR (Homo sapiens, UniProt O75469); assay: Competitive radioligand binding assay ([3H]SR12813); set-up: purchased Eurofins Cerep (contract assay service); conditions: 7 concentrations 0.01-10 µM, duplicate; read-out: IC50, inhibition of binding of 3H-labeled SR12813 to PXR
T5 sequence (O75469 1-434): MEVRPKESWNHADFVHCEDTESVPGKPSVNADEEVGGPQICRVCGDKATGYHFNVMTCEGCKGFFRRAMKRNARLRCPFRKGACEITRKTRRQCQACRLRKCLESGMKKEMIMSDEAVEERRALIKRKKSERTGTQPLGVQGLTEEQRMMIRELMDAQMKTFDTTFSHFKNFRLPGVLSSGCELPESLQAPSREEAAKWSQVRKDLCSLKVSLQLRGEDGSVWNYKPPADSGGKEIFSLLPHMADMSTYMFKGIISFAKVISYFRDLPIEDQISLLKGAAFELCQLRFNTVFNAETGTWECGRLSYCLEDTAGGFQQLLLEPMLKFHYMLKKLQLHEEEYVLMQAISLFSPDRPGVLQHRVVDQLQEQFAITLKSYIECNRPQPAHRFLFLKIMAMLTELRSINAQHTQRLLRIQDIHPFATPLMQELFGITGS
Description: The assay was performed by Eurofins Cerep (Celle-Lévescault, France). […] Compound binding was calculated as % inhibition of the binding of the radioactively labeled PXR ligand [3H]SR12813 to recombinant human PXR, as described previously.

T1 sequence (O75469 whole entry S208W/S247W/C284W): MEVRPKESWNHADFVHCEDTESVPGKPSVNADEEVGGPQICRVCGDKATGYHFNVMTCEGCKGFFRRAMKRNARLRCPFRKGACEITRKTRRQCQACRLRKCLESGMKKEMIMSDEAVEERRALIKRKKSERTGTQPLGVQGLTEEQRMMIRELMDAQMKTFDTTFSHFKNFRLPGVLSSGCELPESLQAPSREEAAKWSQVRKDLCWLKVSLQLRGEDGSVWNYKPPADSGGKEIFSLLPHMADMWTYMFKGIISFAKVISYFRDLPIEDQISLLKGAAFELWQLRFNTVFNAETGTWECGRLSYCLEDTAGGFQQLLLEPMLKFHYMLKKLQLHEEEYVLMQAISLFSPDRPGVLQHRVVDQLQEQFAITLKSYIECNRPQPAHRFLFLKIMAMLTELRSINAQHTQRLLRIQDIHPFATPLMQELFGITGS

## O=C(Cc1ccccc1)Nc1ccc(F)c(Nc2ccc3c(c2)CCCCC3=O)c1 [Compound 100]
PXR(S208W/S247W/C284W)
  suppression of constitutive activity of LBP-filled PXR mutant: did not affect constitutive activity of the PXR mutant
EPHA6; 1.0E-05 M
  Residual activity: 80 % of control
EPHA6; 1.0E-06 M
  Residual activity: 110 % of control
PKA
  inhibition at 10 µM: ≥ 50%
PKA; 1.0E-05 M
  Residual activity: 21 % of control
PKA; 1.0E-06 M
  Residual activity: 97 % of control
VEGFR1; 1.0E-05 M
  Residual activity: 93 % of control
VEGFR1; 1.0E-06 M
  Residual activity: 100 % of control
PXR
  pIC50: 5.35

## Cc1ccc(NC(=O)Cc2ccccc2)cc1Nc1ccc2c(c1)CCCCC2=O [Compound 73]
PXR(S208W/S247W/C284W)
  suppression of constitutive activity of LBP-filled PXR mutant: 40%

## O=C(Nc1ccc(F)c(Nc2ccc3c(c2)CCCCC3=O)c1)c1cccc(F)c1 [Compound 109]
EPHA6; 1.0E-05 M
  Residual activity: 94 % of control
EPHA6; 1.0E-06 M
  Residual activity: 100 % of control
PKA
  inhibition at 10 µM: ≥ 50%
PKA; 1.0E-05 M
  Residual activity: 49 % of control
PKA; 1.0E-06 M
  Residual activity: 86 % of control
VEGFR1; 1.0E-05 M
  Residual activity: 93 % of control
VEGFR1; 1.0E-06 M
  Residual activity: 101 % of control
PXR
  pIC50: 5.54

Reference: article PMC9030254, “Target Hopping from Protein Kinases to PXR: Identification of Small-Molecule Protein Kinase Inhibitors as Selective Modulators of Pregnane X Receptor from TüKIC Library” (Cells, 2022)
